Paper PMC9382192, “Combined treatment with epigenetic agents enhances anti-tumor activity of MAGE-D4 peptide-specific T cells by upregulating the MAGE-D4 expression in glioma” (Frontiers in Oncology, 2022)

Legend:
U87 glioma tissues = experiment: CD8 immunohistochemistry of xenograft tissue; type: in vivo, BALB/C nude female mice; settings: MAGE-D4-specific T cells in TSA-treated U87 glioma tissues, IHC
Experimental: Eighteen BALB/C nude female mice aged 4 weeks were provided by the Guangxi Experimental Animal Center. The mice were placed in a light-controlled room at 24 ± 1 °C (light: 7:00–19:00 h, dark: 19:00–7:00 h) and fed under specific pathogen-free conditions. All protocols followed the guidelines of the National Research Council for the Care and Use of Laboratory Animals and were approved by the Animal Ethics Committee of Guangxi Medical University. To develop a xenograft model, 4 × 10^6 U87 cells were inoculated into the flanks of the mice subcutaneously. Two weeks later, mice simultaneously received intraperitoneal peritumorally injections of TSA (0.5 mg/kg) and 1 × 10^7 peptides loaded on CD8^+ T cells, respectively. Every […], tumor volumes were measured simultaneously with a caliper. Mice were sacrificed by euthanasia when visibly ill. Mice injected with negative peptide-induced CTLs and CTLs without peptides were included as controls. The tumor volumes were calculated using the following formula: tumor volume = [(width2 × length)/2]. Immunochemistry was conducted to detect expressions of CD8 on tissue sections. […] Integrated optical density (IOD) was measured by image-Pro Plus software (version 6.0, Media Cybernetics, MD, USA) for images of five randomly selected regions from a slice. The results were expressed as average optical density (AOD = IOD/area).

HLA-A2 = HLA-A2 expression in U87; type: cell-based, human; settings: TSA 1 μM 24 h
Experimental: The human glioma cell lines (U87-MG and U251) were obtained from the Cell Bank of Type Culture Collection of the Chinese Academy of Science (Shanghai, China). […] A3656), valproic acid (VPA, CAS No. 99-66-1), and trichostatin A (TSA, CAS No. 58880-19-6) were purchased from Sigma-Aldrich Corporation (St. Louis, MO, USA). DAC and TSA were dissolved in DMSO to a concentration of 10 mM. Aliquots were stored at -80°C and diluted with media before being used. Drug treatments were divided into seven groups: (1) DAC group: cells were cultured in medium on the presence of 1 μM DAC for 120 h; (2) VPA group: cells were grown in medium containing 1 mM VPA for 120 h; (3) TSA group: cells were cultured in medium supplemented with 1 μM TSA for 24 h; (4) D + V group: cells were cultured with 1 μM DAC and 1 mM VPA for 120 h; (5) D + T group: cells were cultured with 1 μM DAC for 120 h, followed by 1 μM TSA for 24 h; (6) Control group: cells were cultured with 0.09% DMSO, which is the highest concentration of DMSO used in this study in consideration of the potential toxicity of DMSO to living cells. […] The cells were then harvested, washed with PBS buffer three times, and analyzed by a FACScan flow cytometer (BD Biosciences, Franklin Lakes, NJ, USA) using BD AccuriTM C6 Software (BD Biosciences).

IFN-γ = IFN-γ ELISPOT; type: cell-based, human; settings: 1 × 10^6 T cells/well stimulated by peptide-pulsed DCs, 20 h
Experimental: The number of T cells secreting IFN-γ was measured by ELISPOT using Human IFN-γ precoated ELISPOT kit (Dakewe, Beijing, China). Briefly, RPMI 1640 complete medium was added for 5–10 min to activate the pre-coated plate. T cells (1 × 10^6/well) stimulated by peptide-pulsed DCs were added to each well and incubated in a 37°C 5% CO2 incubator for 20 h. After lysis in cold water, the biotin-labeled antibody was added and incubated at 37°C for 1 h, then the enzyme-labeled avidin was added and incubated at 37°C for 1 h. The spots present in each well were scanned using the CTL ELISPOT analyzer and counted using the ImmunoSpot Professional Software.

Molecule | CD8+ T-cell infiltration in tumor tissue (U87 glioma tissues) | HLA-A2 levels (HLA-A2) | number of IFN-γ secreting T cells (ELISPOT) (IFN-γ)
CC(/C=C/C(=O)NO)=C\[C@@H](C)C(=O)c1ccc(N(C)C)cc1 [TSA, trichostatin A] | highest degree | elevated HLA-A2 levels with statistical significance | 
CLPPPNVIL [Peptide P8] |  |  | more than that in others
